# According to patent US6855669B2, “Use of α,β unsaturated aliphatic aldehydes and ketones to inhibit potato tuber sprouting” (Washington State University Research Foundation, priority 2000, dated 2005):
# Assays:
# [1] = test system: Russet Burbank seed tubers; assay: Example 4: sprout inhibition by aldehyde vapors, 26 days of sprouting; assay type: in vivo, Solanum tuberosum; conditions: for Average Sprout Length / External Pit Rating (1-4 scale) / Sprout Fresh Weight: 12 hours vapor, 26 days at 18° C.
# Protocol: Methods: Eleven-month-old Russet Burbank seed tubers were taken from a 4° C. storage area and exposed to trans-2-hexenal (0.6-4.3 mmol/kg), trans-2-heptenal (0.6-3.8 mmol/kg) and trans-2-octenal (0.5-2.5 mmol/kg) vapors separately in 3.9 L glass containers for 12 hours at 23° C. The aldehydes were applied to filter paper inside petri dishes within each jar. Control tubers were enclosed in a glass container without any aldehyde. Sprouts were ‘peeping’ (approximately 3 mm in length) at the time of treatment. Following treatment, tubers were placed at 18° C. (95% relative humidity) in the dark to sprout for 26 days. The experiment was set up in a randomized complete block design (5 replicates) with chemicals and concentrations arranged factorially. Effects of the aliphatic aldehydes on the development of etiolated sprouts were documented at 20 days (photographically) and 26 days of sprouting.
# [2] = test system: Russet Burbank and Ranger Russet seed-tubers; assay: Example 5: sprout inhibition by C5 to C9 trans-2 aldehydes over prolonged storage (17 weeks); assay type: in vivo, Solanum tuberosum; conditions: 0.5, 0.75 and 1.0 mmol/kg tuber, 24 hours; 17 weeks at 8° C., 95% RH
# Protocol: (46° F.), 95% relative humidity (RH), for 17 weeks. As described more fully in Example 5, four-month-old tubers (previously stored at 4° C.) were treated (for 24 h) with different concentrations of the aldehydes in mid January. The treated tubers were then stored in the dark for 120 days (17 weeks).
# Methods: Four-month-old Russet Burbank and Ranger Russet seed-tubers were taken from a 4° C. storage area and treated (Jan. 10, 2001) separately with 0, 0.5, 0.75 and 1.0 mmol/kg tuber of trans-2-pentenal, trans-2-hexenal, trans-2-heptenal, trans-2-octenal, and trans-2-nonenal in 3.9 L glass jars. The volume of inhibitor required to achieve the above rates was pipetted onto filter paper discs inside the lids of each jar. The concentration of inhibitors in the headspace of the jars was equal at 0.16 mmol/L. The tubers were enclosed in the jars and thus exposed to inhibitor vapor for 24 hours at 23° C. Control tubers were enclosed in a glass jar without any aldehyde. Following treatment, tubers were removed from the jars and placed at 8° C. (46° F.) (95% relative humidity) in the dark to sprout for 120 days (17 weeks). The experiment was set up in a randomized complete block design (5 replicates) with chemicals and concentrations arranged factorially. Effects of the aliphatic aldehydes on the development of etiolated sprouts were documented photographically and quantitatively (sprout number and fresh weight) after 120 days of storage.
structure (smiles),measurement,setting,value
CCC/C=C/C=O [trans-2-hexenal],Average Sprout Length,[1]; 0.63 mmol/kg,0.2 cm/tuber
same,External Pit Rating (1-4 scale),[1]; 0.63 mmol/kg,1.4
same,Sprout Fresh Weight,[1]; 0.63 mmol/kg,0.04 g/tuber
same,Average Sprout Length,[1]; 1.33 mmol/kg,0 cm/tuber
same,External Pit Rating (1-4 scale),[1]; 1.33 mmol/kg,2.0
same,Sprout Fresh Weight,[1]; 1.33 mmol/kg,0 g/tuber
same,Average Sprout Length,[1]; 2.06 mmol/kg,0 cm/tuber
same,External Pit Rating (1-4 scale),[1]; 2.06 mmol/kg,2.6
same,Sprout Fresh Weight,[1]; 2.06 mmol/kg,0 g/tuber
same,Average Sprout Length,[1]; 2.50 mmol/kg,0 cm/tuber
same,External Pit Rating (1-4 scale),[1]; 2.50 mmol/kg,3.5
same,Sprout Fresh Weight,[1]; 2.50 mmol/kg,0 g/tuber
same,Average Sprout Length,[1]; 4.34 mmol/kg,0 cm/tuber
same,External Pit Rating (1-4 scale),[1]; 4.34 mmol/kg,2.8
same,Sprout Fresh Weight,[1]; 4.34 mmol/kg,0 g/tuber
same,external pitting (in words),[1]; lowest concentration,minimal
same,inhibition of sprout development (in words),[2],inhibited sprouting in a concentration-dependent manner
